Assay results from ChEMBL document CHEMBL1157356, “Discovery of pyrrolopyridine-pyridone based inhibitors of Met kinase: synthesis, X-ray crystallographic analysis, and biological activities” (J Med Chem, 2008).
Values belong to the compound of their own block, whether it stands above or below them.

How the values were obtained:
[1] = molecular target: Hepatocyte growth factor receptor (Homo sapiens, UniProt P08581); assay: Inhibition of MET
[2] = Antiproliferative activity against human GTL16 cells after 72 hrs by MTS assay; type: functional, cell-based; settings: GTL 16, 72 h
NCI-N87 = assay: Antiproliferative activity against human N87 cells after 72 hrs by MTS assay; type: functional, cell-based; settings: NCI-N87, 72 h
[3] = molecular target: T1, Receptor-type tyrosine-protein kinase FLT3 (Homo sapiens, UniProt P36888); assay: Inhibition of Flt3
T1 sequence (P36888 whole entry): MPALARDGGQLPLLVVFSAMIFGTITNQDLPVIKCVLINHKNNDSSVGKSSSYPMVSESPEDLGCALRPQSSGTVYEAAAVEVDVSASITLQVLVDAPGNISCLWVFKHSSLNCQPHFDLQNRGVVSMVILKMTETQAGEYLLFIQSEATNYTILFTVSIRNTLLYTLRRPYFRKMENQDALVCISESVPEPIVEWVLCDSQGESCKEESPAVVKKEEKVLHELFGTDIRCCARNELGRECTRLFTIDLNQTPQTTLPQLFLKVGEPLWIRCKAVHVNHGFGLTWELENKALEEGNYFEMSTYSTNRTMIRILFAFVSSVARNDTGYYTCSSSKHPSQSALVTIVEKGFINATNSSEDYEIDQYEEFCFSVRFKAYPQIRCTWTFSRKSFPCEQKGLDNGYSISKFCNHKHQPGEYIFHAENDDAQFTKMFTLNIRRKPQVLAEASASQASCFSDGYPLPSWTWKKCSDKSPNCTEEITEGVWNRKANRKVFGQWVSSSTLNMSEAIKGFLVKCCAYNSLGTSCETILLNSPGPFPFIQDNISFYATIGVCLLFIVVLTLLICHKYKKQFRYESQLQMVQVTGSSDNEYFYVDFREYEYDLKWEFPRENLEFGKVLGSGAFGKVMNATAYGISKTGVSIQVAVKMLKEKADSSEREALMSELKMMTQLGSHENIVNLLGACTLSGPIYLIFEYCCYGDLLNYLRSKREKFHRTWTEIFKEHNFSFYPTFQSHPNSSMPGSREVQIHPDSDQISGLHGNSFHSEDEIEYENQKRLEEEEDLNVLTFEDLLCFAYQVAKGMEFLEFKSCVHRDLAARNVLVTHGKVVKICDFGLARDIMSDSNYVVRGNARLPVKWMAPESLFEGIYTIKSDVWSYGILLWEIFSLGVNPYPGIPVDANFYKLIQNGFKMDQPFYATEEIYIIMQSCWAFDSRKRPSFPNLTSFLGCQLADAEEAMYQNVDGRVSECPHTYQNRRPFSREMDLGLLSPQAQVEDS

[4] = molecular target: Vascular endothelial growth factor receptor 2 (Homo sapiens, UniProt P35968); assay: Inhibition of VEGFR2
[5] = molecular target: Mast/stem cell growth factor receptor Kit (Homo sapiens, UniProt P10721); assay: Inhibition of c-Kit
[6] = molecular target: Cyclin-dependent kinase 2 (Homo sapiens, UniProt P24941); assay: Inhibition of CDK2/cyclin E
[7] = molecular target: Protein kinase C alpha type (Homo sapiens, UniProt P17252); assay: Inhibition of PKCalpha
[8] = Inhibition of PKA
[9] = molecular target: Insulin-like growth factor 1 receptor (Homo sapiens, UniProt P08069); assay: Inhibition of IGF1R
Insulin receptor = Insulin receptor (Homo sapiens, UniProt P06213); assay: Inhibition of InsR
[10] = molecular target: MAP kinase-activated protein kinase 2 (Homo sapiens, UniProt P49137); assay: Inhibition of MK2
Liver microsomes = assay: Metabolic stability in human liver microsomes assessed as metabolic rate per mg of protein at 3 uM; type: ADME, Microsome
[11] = Metabolic stability in mouse liver microsomes assessed as metabolic rate per mg of protein at 3 uM; type: ADME, Microsome
[12] = AUC (0 to 24 hrs) in BALB/c mouse at 5 mg/kg, iv; type: ADME, organism-based; set-up: time < 24 hr, dose 5 mg/kg, route intravenous; settings: plasma
[13] = Half life in BALB/c mouse at 5 mg/kg, iv; type: ADME, organism-based; set-up: dose 5 mg/kg, route intravenous; settings: in vivo
[14] = Mean residence time in BALB/c mouse at 5 mg/kg, iv; type: ADME, organism-based; set-up: dose 5 mg/kg, route intravenous; settings: in vivo
[15] = Clearance in BALB/c mouse at 5 mg/kg, iv; type: ADME, organism-based; set-up: dose 5 mg/kg, route intravenous; settings: in vivo
[16] = Volume of distribution at steady state in BALB/c mouse at 5 mg/kg, iv; type: ADME, organism-based; set-up: dose 5 mg/kg, route intravenous; settings: in vivo, read-out: Vdss
[17] = Cmax in BALB/c mouse at 10 mg/kg, po; type: ADME, organism-based; set-up: dose 10 mg/kg, route oral; settings: in vivo
[18] = Tmax in BALB/c mouse at 10 mg/kg, po; type: ADME, organism-based; set-up: dose 10 mg/kg, route oral; settings: in vivo
[19] = AUC (0 to 24 hrs) in BALB/c mouse at 10 mg/kg, po; type: ADME, organism-based; set-up: time < 24 hr, dose 10 mg/kg, route oral; settings: plasma
[20] = Half life in BALB/c mouse at 10 mg/kg, po; type: ADME, organism-based; set-up: dose 10 mg/kg, route oral; settings: in vivo
[21] = Mean residence time in BALB/c mouse at 10 mg/kg, po; type: ADME, organism-based; set-up: dose 10 mg/kg, route oral; settings: in vivo
[22] = Oral bioavailability in BALB/c mouse at 10 mg/kg, po; type: ADME, organism-based; settings: in vivo
Serum [23] = assay: Protein binding in human serum at 10 uM by equilibrium dialysis method; type: ADME, cell-free
Serum [24] = assay: Protein binding in mouse serum at 10 uM by equilibrium dialysis method; type: ADME, cell-free
[25] = Antitumor activity against human GTL16 cells xenografted po dosed BALB/c mouse administered once daily 14 days after tumor implantation; type: functional; settings: GTL 16, po, 336 h, read-out: MED
[26] = Toxicity in human GTL16 cells xenografted BALB/c mouse assessed as maximum tolerated dose at 100 mg/kg, po qd administered 14 days after tumor implantation; type: organism-based; set-up: dose 100 mg/kg, route oral; settings: in vivo
[27] = Antitumor activity against human GTL16 cells xenografted BALB/c mouse assessed as induction of complete tumor stasis at 25 mg/kg, po qd administered 14 days after tumor implantation; type: functional; settings: GTL 16, 336 h, read-out: TGI
[28] = Antitumor activity against human GTL16 cells xenografted BALB/c mouse assessed as induction of tumor regression at 50 mg/kg, po qd administered 14 days after tumor implantation; type: functional; settings: GTL 16, 336 h, read-out: TGI
[29] = molecular target: Tyrosine-protein kinase Lck (Homo sapiens, UniProt P06239)
[30] = Antitumor activity against human GTL16 cells xenografted BALB/c mouse assessed as at 12.5 mg/kg, po qd administered 14 days after tumor implantation; settings: GTL 16, po, 336 h, read-out: TGI

Chain of Hepatocyte growth factor receptor (P08581 whole entry): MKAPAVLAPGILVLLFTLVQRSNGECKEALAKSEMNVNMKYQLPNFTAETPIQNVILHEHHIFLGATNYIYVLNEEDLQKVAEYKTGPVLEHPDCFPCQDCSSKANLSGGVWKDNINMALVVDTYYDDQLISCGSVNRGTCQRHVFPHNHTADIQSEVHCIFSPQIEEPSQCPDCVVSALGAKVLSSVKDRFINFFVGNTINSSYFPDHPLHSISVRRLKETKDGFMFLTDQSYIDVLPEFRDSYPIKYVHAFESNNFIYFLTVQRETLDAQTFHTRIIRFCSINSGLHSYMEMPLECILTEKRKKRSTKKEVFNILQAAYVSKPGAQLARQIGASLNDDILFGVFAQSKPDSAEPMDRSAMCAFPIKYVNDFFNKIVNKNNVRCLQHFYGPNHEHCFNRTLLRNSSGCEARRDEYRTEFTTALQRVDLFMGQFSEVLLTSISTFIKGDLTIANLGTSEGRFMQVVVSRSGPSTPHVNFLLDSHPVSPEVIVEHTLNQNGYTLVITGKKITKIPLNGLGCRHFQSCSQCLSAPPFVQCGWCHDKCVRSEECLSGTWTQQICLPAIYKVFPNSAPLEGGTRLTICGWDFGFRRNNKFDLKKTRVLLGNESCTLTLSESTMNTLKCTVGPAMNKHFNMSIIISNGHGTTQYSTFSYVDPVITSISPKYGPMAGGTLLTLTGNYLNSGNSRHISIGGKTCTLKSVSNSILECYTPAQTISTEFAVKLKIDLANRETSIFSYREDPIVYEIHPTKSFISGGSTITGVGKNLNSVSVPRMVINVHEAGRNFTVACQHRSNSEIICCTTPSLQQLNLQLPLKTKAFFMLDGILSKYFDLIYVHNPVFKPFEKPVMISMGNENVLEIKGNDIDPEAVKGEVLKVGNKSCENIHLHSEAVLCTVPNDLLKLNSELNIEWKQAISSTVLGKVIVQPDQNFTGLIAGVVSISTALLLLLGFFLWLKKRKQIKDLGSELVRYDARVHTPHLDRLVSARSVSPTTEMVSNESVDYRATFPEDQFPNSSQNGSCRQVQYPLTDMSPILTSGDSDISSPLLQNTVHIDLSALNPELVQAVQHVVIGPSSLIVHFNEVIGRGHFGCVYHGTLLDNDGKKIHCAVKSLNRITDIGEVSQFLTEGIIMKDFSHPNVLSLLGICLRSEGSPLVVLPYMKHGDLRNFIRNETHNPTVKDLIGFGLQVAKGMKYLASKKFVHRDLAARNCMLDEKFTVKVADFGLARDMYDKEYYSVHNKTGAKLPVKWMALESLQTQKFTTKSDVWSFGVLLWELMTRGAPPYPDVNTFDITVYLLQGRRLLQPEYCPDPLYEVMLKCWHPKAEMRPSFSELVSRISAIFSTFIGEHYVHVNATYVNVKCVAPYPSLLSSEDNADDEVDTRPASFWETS
Chain of Tyrosine-protein kinase Lck (P06239 whole entry): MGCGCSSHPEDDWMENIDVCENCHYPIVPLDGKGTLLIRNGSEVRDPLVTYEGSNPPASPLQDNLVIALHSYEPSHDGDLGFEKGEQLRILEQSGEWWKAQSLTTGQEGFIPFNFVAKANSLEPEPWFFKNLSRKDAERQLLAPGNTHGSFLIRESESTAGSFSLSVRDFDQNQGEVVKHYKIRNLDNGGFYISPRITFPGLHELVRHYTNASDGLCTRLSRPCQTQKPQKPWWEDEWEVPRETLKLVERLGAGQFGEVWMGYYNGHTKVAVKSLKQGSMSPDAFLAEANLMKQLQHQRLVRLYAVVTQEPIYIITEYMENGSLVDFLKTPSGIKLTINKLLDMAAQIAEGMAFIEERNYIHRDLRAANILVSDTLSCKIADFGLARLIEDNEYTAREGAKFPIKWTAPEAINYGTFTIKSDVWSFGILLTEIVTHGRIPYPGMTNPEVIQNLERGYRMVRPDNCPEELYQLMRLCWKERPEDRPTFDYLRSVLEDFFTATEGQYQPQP
Chain of MAP kinase-activated protein kinase 2 (P49137 whole entry): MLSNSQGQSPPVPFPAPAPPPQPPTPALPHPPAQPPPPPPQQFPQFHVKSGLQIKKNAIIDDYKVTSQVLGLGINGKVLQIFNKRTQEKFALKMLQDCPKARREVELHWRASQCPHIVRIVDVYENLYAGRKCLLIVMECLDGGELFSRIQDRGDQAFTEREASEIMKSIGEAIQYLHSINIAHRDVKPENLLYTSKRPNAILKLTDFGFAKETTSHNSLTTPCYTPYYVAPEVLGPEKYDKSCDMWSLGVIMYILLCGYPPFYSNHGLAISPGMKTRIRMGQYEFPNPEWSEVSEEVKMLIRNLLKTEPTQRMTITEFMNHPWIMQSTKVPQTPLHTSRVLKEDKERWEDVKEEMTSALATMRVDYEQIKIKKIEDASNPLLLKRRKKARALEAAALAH
Chain of Insulin receptor (P06213 28-758 limits assumed): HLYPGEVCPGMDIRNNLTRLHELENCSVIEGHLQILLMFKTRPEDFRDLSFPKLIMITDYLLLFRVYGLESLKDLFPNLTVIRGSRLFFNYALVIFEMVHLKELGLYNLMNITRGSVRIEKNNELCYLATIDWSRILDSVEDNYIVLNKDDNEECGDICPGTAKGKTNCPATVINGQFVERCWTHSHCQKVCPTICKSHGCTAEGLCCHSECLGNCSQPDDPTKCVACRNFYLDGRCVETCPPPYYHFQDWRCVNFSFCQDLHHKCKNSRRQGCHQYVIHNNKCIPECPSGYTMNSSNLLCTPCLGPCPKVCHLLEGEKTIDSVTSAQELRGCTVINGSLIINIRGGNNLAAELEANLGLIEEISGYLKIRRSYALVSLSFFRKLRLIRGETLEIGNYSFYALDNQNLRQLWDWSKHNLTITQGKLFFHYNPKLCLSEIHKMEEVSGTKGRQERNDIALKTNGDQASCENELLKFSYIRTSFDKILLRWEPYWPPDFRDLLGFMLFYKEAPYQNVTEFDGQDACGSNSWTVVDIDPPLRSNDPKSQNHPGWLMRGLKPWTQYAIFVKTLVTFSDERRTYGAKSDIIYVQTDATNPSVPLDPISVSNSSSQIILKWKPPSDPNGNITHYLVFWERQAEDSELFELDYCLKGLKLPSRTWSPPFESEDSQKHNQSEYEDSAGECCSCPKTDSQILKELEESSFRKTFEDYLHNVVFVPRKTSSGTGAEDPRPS
Chain of Insulin receptor (P06213 763-1382 limits assumed): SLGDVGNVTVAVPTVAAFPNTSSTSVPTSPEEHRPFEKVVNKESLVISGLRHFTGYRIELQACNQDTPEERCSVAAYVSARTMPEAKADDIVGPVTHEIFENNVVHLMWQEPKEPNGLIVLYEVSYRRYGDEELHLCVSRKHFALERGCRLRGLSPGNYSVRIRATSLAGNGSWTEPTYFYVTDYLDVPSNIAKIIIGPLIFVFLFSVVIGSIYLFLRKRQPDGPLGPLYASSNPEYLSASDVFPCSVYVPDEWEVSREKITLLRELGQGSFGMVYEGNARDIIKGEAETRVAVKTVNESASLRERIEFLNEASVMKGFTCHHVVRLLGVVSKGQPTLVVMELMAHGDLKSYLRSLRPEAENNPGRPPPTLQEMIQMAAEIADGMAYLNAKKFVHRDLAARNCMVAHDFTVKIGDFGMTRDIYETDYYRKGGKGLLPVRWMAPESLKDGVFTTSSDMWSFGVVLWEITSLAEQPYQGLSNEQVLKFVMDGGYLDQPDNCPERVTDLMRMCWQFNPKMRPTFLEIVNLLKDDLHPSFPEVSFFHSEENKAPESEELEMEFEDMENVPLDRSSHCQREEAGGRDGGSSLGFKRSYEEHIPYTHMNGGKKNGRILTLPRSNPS
Chain of Insulin-like growth factor 1 receptor (P08069 31-736 limits assumed): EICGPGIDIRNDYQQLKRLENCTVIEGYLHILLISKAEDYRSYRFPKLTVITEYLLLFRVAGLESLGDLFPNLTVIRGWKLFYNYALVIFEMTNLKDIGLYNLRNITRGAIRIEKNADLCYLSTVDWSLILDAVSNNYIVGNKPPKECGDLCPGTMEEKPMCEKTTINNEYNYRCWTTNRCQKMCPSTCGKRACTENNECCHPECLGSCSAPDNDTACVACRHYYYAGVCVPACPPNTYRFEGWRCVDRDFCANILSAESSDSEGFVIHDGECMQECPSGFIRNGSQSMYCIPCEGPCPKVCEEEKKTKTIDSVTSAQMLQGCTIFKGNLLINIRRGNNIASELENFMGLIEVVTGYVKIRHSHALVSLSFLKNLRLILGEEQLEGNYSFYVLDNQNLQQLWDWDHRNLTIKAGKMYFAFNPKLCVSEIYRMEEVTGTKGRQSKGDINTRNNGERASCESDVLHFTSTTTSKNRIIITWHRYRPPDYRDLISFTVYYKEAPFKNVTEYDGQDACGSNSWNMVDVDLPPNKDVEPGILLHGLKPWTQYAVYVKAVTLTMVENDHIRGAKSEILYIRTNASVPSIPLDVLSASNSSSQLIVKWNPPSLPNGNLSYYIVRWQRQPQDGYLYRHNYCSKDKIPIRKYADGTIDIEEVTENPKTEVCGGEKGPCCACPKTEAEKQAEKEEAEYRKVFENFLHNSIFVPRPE
Chain of Insulin-like growth factor 1 receptor (P08069 741-1367 limits assumed): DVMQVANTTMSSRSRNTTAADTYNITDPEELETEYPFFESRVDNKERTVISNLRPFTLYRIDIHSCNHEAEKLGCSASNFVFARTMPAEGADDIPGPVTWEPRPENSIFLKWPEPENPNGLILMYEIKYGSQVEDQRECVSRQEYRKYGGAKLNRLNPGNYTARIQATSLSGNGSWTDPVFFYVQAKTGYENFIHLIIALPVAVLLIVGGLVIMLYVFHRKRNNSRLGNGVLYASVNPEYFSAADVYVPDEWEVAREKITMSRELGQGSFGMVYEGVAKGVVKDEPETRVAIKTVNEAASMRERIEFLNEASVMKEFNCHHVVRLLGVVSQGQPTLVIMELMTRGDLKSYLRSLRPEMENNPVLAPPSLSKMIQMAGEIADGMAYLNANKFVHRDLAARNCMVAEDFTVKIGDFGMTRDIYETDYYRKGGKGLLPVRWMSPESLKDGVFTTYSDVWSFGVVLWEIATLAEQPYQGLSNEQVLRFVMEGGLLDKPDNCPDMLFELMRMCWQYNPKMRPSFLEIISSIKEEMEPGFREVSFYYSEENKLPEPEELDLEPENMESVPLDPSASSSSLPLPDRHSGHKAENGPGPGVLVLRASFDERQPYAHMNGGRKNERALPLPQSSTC

SMILES: O=C(Nc1ccc(Oc2ccnc3[nH]ccc23)c(F)c1)c1cocc(-c2ccc(F)cc2)c1=O
IC50 [1]: 1400 nM | IC50 [2]: > 10000 nM

SMILES: O=C(Nc1ccc(Oc2ccnc3[nH]ccc23)c(F)c1)c1cccn(-c2ccccc2)c1=O
IC50 [1]: 1.9 nM | IC50 [2]: 140 nM | IC50 (NCI-N87): > 5000 nM

SMILES: NC(=O)c1ccc(-n2cccc(C(=O)Nc3ccc(Oc4ccnc5[nH]ccc45)c(F)c3)c2=O)cc1
IC50 [1]: 1000 nM | IC50 [2]: > 5000 nM

SMILES: CC(C)CCn1cccc(C(=O)Nc2ccc(Oc3ccnc4[nH]ccc34)c(F)c2)c1=O
IC50 [1]: 30 nM | IC50 [2]: 3700 nM | IC50 (NCI-N87): > 5000 nM

SMILES: O=C(Nc1ccc(Oc2ccnc3[nH]ccc23)c(F)c1)c1cccn(Cc2ccc(F)cc2)c1=O
IC50 [1]: 8.2 nM | IC50 [2]: 2100 nM | IC50 (NCI-N87): > 5000 nM

SMILES: O=C(Nc1ccc(Oc2ccnc3[nH]ccc23)c(F)c1)c1cccn(-c2ccccn2)c1=O
IC50 [1]: 10 nM | IC50 [2]: 970 nM | IC50 (NCI-N87): > 5000 nM

SMILES: O=C(Nc1ccc(Oc2ccnc3[nH]ccc23)c(F)c1)c1cncc(-c2ccc(F)cc2)c1O
IC50 [1]: 2.8 nM | IC50 [2]: 70 nM | IC50 (NCI-N87): 1240 nM

SMILES: Cn1cc(C(=O)Nc2ccc(Oc3ccnc4[nH]ccc34)c(F)c2)c(=O)c(-c2ccc(F)cc2)c1
IC50 [1]: 3.1 nM | IC50 [2]: 150 nM | IC50 (NCI-N87): 2620 nM

SMILES: O=C(Nc1ccc(Oc2ccnc3[nH]ccc23)c(F)c1)c1cn(C2CC2)cc(-c2ccc(F)cc2)c1=O
IC50 [1]: 3.4 nM | IC50 [2]: 60 nM | IC50 (NCI-N87): > 5000 nM

IC50 [1]: 1.3 nM
SMILES: O=C(Nc1ccc(Oc2ccnc3[nH]ccc23)c(F)c1)c1cccc(-c2ccccc2)[n+]1[O-]
IC50 [2]: 40 nM | IC50 (NCI-N87): > 5000 nM

IC50 [1]: 1.8 nM
SMILES: O=C(Nc1ccc(Oc2ccnc3[nH]ccc23)c(F)c1)c1cccc(-c2ccc(F)cc2)[n+]1[O-]
IC50 [2]: 40 nM | IC50 (NCI-N87): 4900 nM

SMILES: COc1ccc(-n2cc(C(=O)Nc3ccc(Oc4ccnc5[nH]ccc45)c(F)c3)c(=O)c(-c3ccc(F)cc3)c2)cc1F
IC50 [1]: 5 nM | IC50 [2]: 200 nM | IC50 (NCI-N87): > 5000 nM

SMILES: O=C(Nc1ccc(Oc2ccnc3[nH]ccc23)c(F)c1)c1cn(-c2ccc(Cl)c(F)c2)cc(-c2ccc(F)cc2)c1=O
IC50 [1]: 2.3 nM | IC50 [2]: 130 nM | IC50 (NCI-N87): > 5000 nM

SMILES: CC(C)(C)n1cccc(C(=O)Nc2ccc(Oc3ccnc4[nH]ccc34)c(F)c2)c1=O
IC50 [1]: 1000 nM

SMILES: O=C(Nc1ccc(Oc2ccnc3[nH]ccc23)c(F)c1)c1cccn(C2CC2)c1=O
IC50 [1]: 1000 nM

IC50 [1]: 470 nM
SMILES: O=C(Nc1ccc(Oc2ccnc3[nH]ccc23)c(F)c1)c1cccc(-c2ccccc2)n1

SMILES: O=C(Nc1ccc(Oc2ccnc3[nH]ccc23)c(F)c1)c1cn(CCO)cc(-c2ccc(F)cc2)c1=O
IC50 [1]: 3.8 nM | IC50 [2]: 280 nM | IC50 (NCI-N87): > 5000 nM

SMILES: O=C(Nc1ccc(Oc2ccnc3[nH]ccc23)c(F)c1)c1cccn(-c2ccc(F)cc2)c1=O
IC50 (NCI-N87): > 5000 nM | IC50 [3]: 4 nM | IC50 [4]: 27 nM | IC50 [5]: 610 nM | IC50 [6]: > 1000 nM | IC50 [7]: > 30000 nM | IC50 [8]: > 30000 nM | IC50 [9]: > 5000 nM | IC50 (Insulin receptor): > 5000 nM | IC50 [10]: > 10000 nM | Stability (Liver microsomes): < 0.01 nM/min/mg | Stability [11]: 0.055 nM/min/mg | AUC(0-t) at 24 h [12]: 19.8 µM·h | half-life [13]: 2.5 h | MRT [14]: 3 h | clearance [15]: 9.2 mL/min/kg | Vd [16]: 1.6 L/kg | Cmax [17]: 11.5 µM | Tmax [18]: 0.5 h | AUC(0-t) at 24 h [19]: 50.2 µM·h | half-life [20]: 2.2 h | MRT [21]: 4.5 h | bioavailability [22]: 100% | Activity (Serum [23]): 99.9% | Activity (Serum [24]): 99.4% | minimal effective dose [25]: 12.5 mg/kg | MTD at 336 h [26]: 100 mg/kg | inhibition in vivo at 25 mg/kg [27]: 86% | inhibition in vivo at 50 mg/kg [28]: 110% | IC50 [29]: 290 nM | inhibition in vivo at 12.5 mg/kg [30]: 62%

SMILES: O=C(Nc1ccc(Oc2ccnc3[nH]ccc23)c(F)c1)c1cccn(-c2cccnc2)c1=O
IC50 [1]: 70 nM | IC50 [2]: 4000 nM | IC50 (NCI-N87): > 5000 nM
